Source: patent EP4667483A1, “HUMAN TRANSFERRIN RECEPTOR-BINDING PEPTIDE” (JCR Pharmaceuticals Co., Ltd., priority 2023, dated 2024)
Numbered stars: 1 amine (or outer) side, 2 acyl side, 3 side chain; on linkers, the order of the positions; unused ones are H or OH. Bridge positions count the residues as written; N and C are the ends. Square brackets hold non-standard residues; d marks the D form. Side chains are listed from the residue outwards. Peptide text beside a SMILES is read from it. * marks the point of attachment. Trp(1-CH2COOH) = N[C@@H](Cc1cn(CC(=O)O)c2ccccc12)C(=O)O; CH2CON(CH2CH2)2NCH2COOH = O=C(O)CN1CCN(C(=O)C*)CC1; Nle(6-morpholino) = N[C@@H](CCCCN1CCOCC1)C(=O)O; Trp(7-aza) = N[C@@H](Cc1c[nH]c2ncccc12)C(=O)O; NH(CH2CH2O)8Me = COCCOCCOCCOCCOCCOCCOCCOCCN*; NMePhe(3-Cl) = CN[C@@H](Cc1cccc(Cl)c1)C(=O)O; Piperazinyl(4-CH2COOH) = O=C(O)CN1CCN(*)CC1; 3Pal(6-NH2) = Nc1ccc(C[C@H](N)C(=O)O)cn1; NMeY = CN[C@@H](Cc1ccc(O)cc1)C(=O)O; 4Pal = N[C@@H](Cc1ccncc1)C(=O)O; PEG4 = NCCOCCOCCOCCOCCC(=O)O; CO = O=C([*:1])[*:2]

Target: human transferrin receptor (hTfR) (Homo sapiens, UniProt P02786)
Sequence (P02786 whole entry): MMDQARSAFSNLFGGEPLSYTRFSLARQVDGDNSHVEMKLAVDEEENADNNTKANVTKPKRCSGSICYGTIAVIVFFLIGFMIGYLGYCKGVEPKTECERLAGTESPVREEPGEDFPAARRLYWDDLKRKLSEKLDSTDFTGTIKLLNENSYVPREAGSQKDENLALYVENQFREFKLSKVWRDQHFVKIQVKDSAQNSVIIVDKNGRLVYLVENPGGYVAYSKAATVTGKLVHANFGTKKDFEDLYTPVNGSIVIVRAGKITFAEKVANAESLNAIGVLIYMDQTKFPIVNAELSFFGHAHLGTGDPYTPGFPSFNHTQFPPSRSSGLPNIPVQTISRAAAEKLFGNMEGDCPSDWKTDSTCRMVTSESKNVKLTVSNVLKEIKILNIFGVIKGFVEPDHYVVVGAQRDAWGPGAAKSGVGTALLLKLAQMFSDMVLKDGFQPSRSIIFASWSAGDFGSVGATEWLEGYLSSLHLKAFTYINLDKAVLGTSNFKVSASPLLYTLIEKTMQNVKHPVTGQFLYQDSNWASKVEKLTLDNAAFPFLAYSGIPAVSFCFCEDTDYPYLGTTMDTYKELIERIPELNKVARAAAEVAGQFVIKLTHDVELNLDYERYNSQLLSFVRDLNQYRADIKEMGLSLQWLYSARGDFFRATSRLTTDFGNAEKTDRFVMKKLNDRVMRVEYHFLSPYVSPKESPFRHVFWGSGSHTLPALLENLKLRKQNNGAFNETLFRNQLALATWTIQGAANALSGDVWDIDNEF
Assay: SPR measurement under pH 7.4 conditions (Biacore T200, CM3 chip, hTfR captured by His Tag antibody)
Type: binding
Conditions: SPR, pH 7.4; Table 2-1-2; read-out: hTfR SPR pH7.4 KD(n M)
Method: Molecular interactions between the synthesized peptides and the transferrin receptor (hTfR) were evaluated by surface plasmon resonance (SPR) using the following method. The specific assay procedure is described below.
An CM3 sensor chip (Cytiva) was inserted into BiacoreT200 (Cytiva), then a priming operation was performed three times by using a running buffer: HBS-P+, pH7.4 (Cytiva), and an equilibrium state was created at a flow rate of […]. Ligand immobilization was performed at a flow rate of 10 µL/min. After mixing 50 µL each of 60 mM EDC solution (Cytiva) and 650 mM NHS solution (Cytiva), the mixture was reacted at a flow rate of 10 µL/min for 420 seconds. 150 µL of […] THE His Tag Antibody, mAb, Mouse (GenScript) was prepared by diluting with 10 mM acetic acid solution (pH 5.0), and reacted at a flow rate of 10 µL/ min for 420 seconds. Then, THE His Tag Antibody, mAb, Mouse (GenScript) was immobilized as a capture molecule on the CM3 sensor chip. After immobilization, capping was performed by reacting with 1.0 M ethanolamine solution (Cytiva) at a flow rate of 10 µL/min for 420 seconds. 300 nM hTfR was captured at a flow rate of 10 µL/min, a peptide solution prepared at 10 mM in DMSO was diluted with running buffer to achieve a final concentration of 10 µM, and peptide solutions at 250 nM, 125 nM, 62.5 nM, 25 nM, and 12.5 nM were prepared. . The peptide samples were reacted at a flow late of 30 µL/min for 120 seconds, followed by dissociation for 600 seconds. The kinetics of the peptide against hTfR was obtained by SPR measurement for the above samples.
The kinetic evaluation model was single-cycle kinetics, and curve fitting was performed using Biacore T200 Evaluation Software Version 3.0 (Cytiva). The binding of the peptide to hTfR was evaluated by performing curve fitting on the obtained sensorgram by the least squares method and obtaining the kon value, the koff value, and the KD value.

| Kd [nM] | Compound |
| --- | --- |
| 32.6 | CC[C@H](C)[C@@H]1NC(=O)[C@H](Cc2ccc(OCC(=O)N3CCN(CC(=O)O)CC3)cc2)NC(=O)[C@H](Cc2ccc(N)nc2)NC(=O)[C@H](CC(N)=O)NC(=O)[C@H](Cc2c[nH]c3ncccc23)NC(=O)[C@H](C(C)C)NC(=O)[C@H](Cc2cccc(Cl)c2)N(C)C(=O)[C@H](C(C)C)NC(=O)[C@H](C)NC(=O)CSC[C@@H](C(=O)NCCOCCOCCOCCOCCC(N)=O)NC(=O)[C@H](Cc2ccc(O)cc2)N(C)C(=O)[C@H](Cc2ccncc2)NC(=O)[C@H](CCCCN2CCOCC2)NC(=O)[C@H](CCC(=O)NCCOCCOCCOCCOCCOCCOCCOCCOC)NC(=O)[C@H]([C@@H](C)CC)NC1=O [compound 154] ({CH2CO}-AV[NMePhe(3-Cl)]V[Trp(7-aza)]N[3Pal(6-NH2)]Y(CH2CON(CH2CH2)2NCH2COOH)IIE(NH(CH2CH2O)8Me)[Nle(6-morpholino)][4Pal][NMeY]C[PEG4]-NH2; thioether N-15) |
| 28.4 | CC[C@H](C)[C@@H]1NC(=O)[C@H](Cc2ccc(OCC(=O)N3CCN(CC(=O)O)CC3)cc2)NC(=O)[C@H](Cc2ccc(N)nc2)NC(=O)[C@H](CC(N)=O)NC(=O)[C@H](Cc2cn(CC(=O)O)c3ccccc23)NC(=O)[C@H](C(C)C)NC(=O)[C@H](Cc2cccc(Cl)c2)N(C)C(=O)[C@H](C(C)C)NC(=O)[C@H](C)NC(=O)CSC[C@@H](C(=O)NCCOCCOCCOCCOCCC(N)=O)NC(=O)[C@H](Cc2ccc(O)cc2)N(C)C(=O)[C@H](Cc2ccncc2)NC(=O)[C@H](CCCCN2CCOCC2)NC(=O)[C@H](CCC(=O)NCCOCCOCCOCCOCCOCCOCCOCCOC)NC(=O)[C@H]([C@@H](C)CC)NC1=O [compound 155] ({CH2CO}-AV[NMePhe(3-Cl)]V[Trp(1-CH2COOH)]N[3Pal(6-NH2)]Y(CH2CON(CH2CH2)2NCH2COOH)IIE(NH(CH2CH2O)8Me)[Nle(6-morpholino)][4Pal][NMeY]C[PEG4]-NH2; thioether N-15) |
| 16 | CC[C@H](C)[C@@H]1NC(=O)[C@H](Cc2ccc(OCC(=O)N3CCN(CC(=O)O)CC3)cc2)NC(=O)[C@H](Cc2ccc(N)nc2)NC(=O)[C@H](CC(N)=O)NC(=O)[C@H](Cc2c[nH]c3ncccc23)NC(=O)[C@H](C(C)C)NC(=O)[C@H](Cc2cccc(Cl)c2)N(C)C(=O)[C@H](C(C)C)NC(=O)[C@H](C)NC(=O)CSC[C@@H](C(=O)NCCOCCOCCOCCOCCC(N)=O)NC(=O)[C@H](Cc2ccc(O)cc2)N(C)C(=O)[C@H](Cc2ccncc2)NC(=O)[C@H](CCCNC(=N)N)NC(=O)[C@H](CCCCNC(=O)N2CCN(CC(=O)O)CC2)NC(=O)[C@H]([C@@H](C)CC)NC1=O [compound 156] ({CH2CO}-AV[NMePhe(3-Cl)]V[Trp(7-aza)]N[3Pal(6-NH2)]Y(CH2CON(CH2CH2)2NCH2COOH)IIK([CO-Piperazinyl(4-CH2COOH)])R[4Pal][NMeY]C[PEG4]-NH2; thioether N-15) |
| 15 | CC[C@H](C)[C@@H]1NC(=O)[C@H](Cc2ccc(OCC(=O)N3CCN(CC(=O)O)CC3)cc2)NC(=O)[C@H](Cc2ccc(N)nc2)NC(=O)[C@H](CC(N)=O)NC(=O)[C@H](Cc2c[nH]c3ncccc23)NC(=O)[C@H](C(C)C)NC(=O)[C@H](Cc2cccc(Cl)c2)N(C)C(=O)[C@H](C(C)C)NC(=O)[C@H](C)NC(=O)CSC[C@@H](C(=O)NCCOCCOCCOCCOCCC(N)=O)NC(=O)[C@H](Cc2ccc(O)cc2)N(C)C(=O)[C@H](Cc2ccncc2)NC(=O)[C@H](CCCCN2CCOCC2)NC(=O)[C@H](CCCCNC(=O)N2CCN(CC(=O)O)CC2)NC(=O)[C@H]([C@@H](C)CC)NC1=O [compound 157] ({CH2CO}-AV[NMePhe(3-Cl)]V[Trp(7-aza)]N[3Pal(6-NH2)]Y(CH2CON(CH2CH2)2NCH2COOH)IIK([CO-Piperazinyl(4-CH2COOH)])[Nle(6-morpholino)][4Pal][NMeY]C[PEG4]-NH2; thioether N-15) |
| 20.2 | CC[C@H](C)[C@@H]1NC(=O)[C@H](Cc2ccc(OCC(=O)N3CCN(CC(=O)O)CC3)cc2)NC(=O)[C@H](Cc2ccc(N)nc2)NC(=O)[C@H](CC(N)=O)NC(=O)[C@H](Cc2cn(CC(=O)O)c3ccccc23)NC(=O)[C@H](C(C)C)NC(=O)[C@H](Cc2cccc(Cl)c2)N(C)C(=O)[C@H](C(C)C)NC(=O)[C@H](C)NC(=O)CSC[C@@H](C(=O)NCCOCCOCCOCCOCCC(N)=O)NC(=O)[C@H](Cc2ccc(O)cc2)N(C)C(=O)[C@H](Cc2ccncc2)NC(=O)[C@H](CCCNC(=N)N)NC(=O)[C@H](CCCCNC(=O)N2CCN(CC(=O)O)CC2)NC(=O)[C@H]([C@@H](C)CC)NC1=O [compound 158] ({CH2CO}-AV[NMePhe(3-Cl)]V[Trp(1-CH2COOH)]N[3Pal(6-NH2)]Y(CH2CON(CH2CH2)2NCH2COOH)IIK([CO-Piperazinyl(4-CH2COOH)])R[4Pal][NMeY]C[PEG4]-NH2; thioether N-15) |
